Results taken from US5514664A, “1,4-dihydropyridines for application in combatting resistance to drugs” (BYK Gulden Lomberg Chemische Fabrik GmbH, priority 1990, dated 1996).
Where “and” joins values, the source holds several entries; their conditions need not be identical. Identical values can stand only once. Counter-ions that a name gives are not always drawn.

Tests used:
MOLT/VCR-5×9 cells = experiment: cells; type: cell-based
Description: (§1) For this, a selected compound of the formula I, the compound (-)-1,4-dihydro-2,6-dimethyl-4-(3-nitrophenyl)-pyridine-3,5-dicarboxylic acid 3-methyl 5- 3(4,4-diphenyl-1-piperidinyl)-propyl! ester hydrochloride (=compound 1), was investigated in more detail as follows:
(§2) The tumour cell lines MOLT/VCR-5×9 (starting density: 1.14×10^6 cells/ml), MOLT/DAU-8 (starting density: 1.01×10^6 cells/ml) and CCRF CEMVCR1000+(starting density: 2.00×10^6 cells/ml), which are resistant towards the cytostatics vincristine and daunomycin, were incubated for 72.5 to 73.25 hours in accordance with the following test pattern:
(§3) 2. Control with the cytostatic relating to the particular cell line (for the concentrations, see below)
(§4) 4. Compound 1 in concentrations of 10^-6 and 10^-7 M
(§5) 5. Compound 1 in concentrations of 10^-6 and 10^-7 M, together with the cytostatic relating to the particular cell line (for the concentrations, see below).
(§6) The cytostatic concentrations used for the individual cell lines were:
(§7) Vincristine: 5×10^-9 M (for MOLT/VCR-5×9)

CCRF CEM VCR1000+ cells = experiment: cells; type: cell-based
Description: as §1, §2, §3, §4, §5
(§8) The cytostatic concentrations used for the individual cell lines were: […]

MOLT/DAU-8 cells = experiment: cells; type: cell-based
Description: as §1, §2, §3, §4, §5, §8

[1] = test system: MOLT/VCR-5×9, MOLT/DAU-8 and CCRF CEM VCR1000+ tumour cell lines
Description: as §1, §2, §3, §4, §5, §6, §7

[2] = 73.25 h, read-out: Growth inhibition in %, compound 1 by itself
[3] = Homo sapiens, CCRF-CEM/VCR-1000, 73.25 h, read-out: Growth inhibition in %, compound 1 by itself

Molecule `CC[C@]1(O)C[C@H]2CN(CCc3c([nH]c4ccccc34)[C@@](C(=O)OC)(c3cc4c(cc3OC)N(C=O)[C@H]3[C@@](O)(C(=O)OC)[C@H](OC(C)=O)[C@]5(CC)C=CCN6CC[C@]43[C@@H]65)C2)C1` [Vincristine, reference compound] has an inhibition at 0.005 µM (MOLT/VCR-5×9 cells; MOLT/VCR-5 × 9, vincristine 5 × 10^-9 M by itself, 72.5 to 73.25 h, vs DMSO control, read-out: Growth inhibition in %, cytostatic by itself) of 0% and an inhibition at 1.08 µM (CCRF CEM VCR1000+ cells; Homo sapiens, CCRF-CEM/VCR-1000, CCRF CEM VCR1000+, vincristine 1.08 × 10^-6 M by itself, 72.5 to 73.25 h, vs DMSO control, read-out: Growth inhibition in %, cytostatic by itself) of 0%.
In the case of `COC(=O)C1=C(C)NC(C)=C(C(=O)OCCCN2CCC(c3ccccc3)(c3ccccc3)CC2)C1c1cccc([N+](=O)[O-])c1` (single isomer, unassigned; (-)) [Compound 1, (-)-1,4-dihydro-2,6-dimethyl-4-(3-nitrophenyl)-pyridine-3,5-dicarboxylic acid 3-methyl 5-3(4,4-diphenyl-1-piperidinyl)-propyl! ester hydrochloride], the “Growth inhibition in %, compound 1 + cytostatic” value (“Growth inhibition in %” below) (MOLT/VCR-5×9 cells) is reported as 99, the inhibition at 0.1 µM (MOLT/VCR-5×9 cells; [2]) is reported as 66% and the inhibition at 10 µM (MOLT/VCR-5×9 cells; [2]) is reported as 79%. The inhibition at 0.1 µM (CCRF CEM VCR1000+ cells; [3]) was 10%, the inhibition at 10 µM (CCRF CEM VCR1000+ cells; [3]) was 67% and the “Growth inhibition in %” value (CCRF CEM VCR1000+ cells; hydrochloride) was 65 and 90. The inhibition at 0.1 µM (MOLT/DAU-8 cells; [2]) was 43%, the inhibition at 10 µM (MOLT/DAU-8 cells; [2]) was 53% and the “Growth inhibition in %” value (MOLT/DAU-8 cells; hydrochloride) was 56 and 96. For the same molecule, the “concentration dependence of growth inhibition (in words)” value [1] was “This inhibition of growth depends on the concentration”, the “inhibition of growth by compound 1 by itself (in words)” value [1] was “All resistant cells are inhibited in their growth” and the “overcoming of resistance and intensification of cytotoxicity (in words)” value [1] was “the resistance towards cytostatics is overcome and the cytotoxicity of the cytostatics is intensified”.
Work on `COc1cccc2c1C(=O)c1c(O)c3c(c(O)c1C2=O)C[C@@](O)(C(C)=O)C[C@@H]3O[C@H]1C[C@H](N)[C@H](O)[C@H](C)O1` [Daunomycin, reference compound] yielded an inhibition at 0.01 µM (MOLT/DAU-8 cells; MOLT/DAU-8, daunomycin 10^-8 M by itself, 72.5 to 73.25 h, vs DMSO control, read-out: Growth inhibition in %, cytostatic by itself) of 0%.
